This note sets out measurements from US10118918B2, “PRMT5 inhibitors and uses thereof” (Epizyme, Inc., priority 2012, dated 2018).

In test [1] the test system is symmetric di-methyl arginine in Z-138 cells. Description: Z-138 Methylation Assay (In Cell Western for symmetric di-methyl arginine and DNA content). In kind it is cell-based. Conditions: 96 hours incubation, read-out: ICW EC50. An excerpt: [formula] Where top and bottom are the normally allowed to float, but may be fixed at 100 or 0 respectively in a 3-parameter fit. The Hill Coefficient normally allowed to float but may also be fixed at 1 in a 3-parameter fit. Y is the % inhibition and X is the compound concentration. Z-138 Methylation Assay
Z-138 suspension cells were purchased from ATCC (American Type Culture Collection, Manassas, Va.). RPMI/Glutamax medium, penicillin-streptomycin, heat inactivated fetal bovine serum, and D-PBS were purchased from Life Technologies, Grand Island, N.Y., USA. Odyssey blocking buffer, 800CW goat anti-rabbit IgG (H+L) antibody, and Licor Odyssey infrared scanner were purchased from Licor Biosciences, Lincoln, Nebr., USA. Symmetric di-methyl arginine antibody was purchased from EMD Millipore, Billerica, Mass., USA. 16% Paraformaldehyde was purchased from Electron Microscopy Sciences, Hatfield, Pa., USA.
Z-138 suspension cells were maintained in growth medium (RPMI 1640 supplemented with 10% v/v heat inactivated fetal bovine serum and 100 units/mL penicillin-streptomycin) and cultured at 37° C. under 5% CO2.
Cell Treatment, in Cell Western (ICW) for Detection of Symmetric Di-Methyl Arginine and DNA Content.
Z-138 cells were seeded in assay medium at a concentration of 50,000 cells per mL to a 384-well cell culture plate with 50 μL per well. Compound (100 nL) from 384 well source plates was added directly to 384 well cell plate. Plates were incubated at 37° C., 5% CO2 for 96 hours. After four days of incubation, 40 μL of cells from incubated plates were added to poly-D-lysine coated 384 well culture plates (BD Biosciences 356697). Plates were incubated at room temperature for 30 minutes then incubated at 37° C., 5% CO2 for 5 hours. After the incubation, 40 μL per well of 8% paraformaldehyde in PBS (16% paraformaldahyde was diluted to 8% in PBS) was added to each plate and incubated for 30 minutes. Plates were transferred to a Biotek 405 plate washer and washed 5 times with 100 μL per well of wash buffer (IX PBS with 0.1% Triton X-100 (v/v)). Next 30 μL per well of Odyssey blocking buffer were added to each plate and incubated 1 hour at room temperature. Blocking buffer was removed and 20 μL per well of primary antibody was added (symmetric di-methyl arginine diluted 1:100 in Odyssey buffer with 0.1% Tween 20 (v/v)) and plates were incubated overnight (16 hours) at 4° C. Plates were washed 5 times with 100 μL per well of wash buffer. Next 20 μL per well of secondary antibody was added (1:200 800CW goat anti-rabbit IgG (H+L) antibody, 1:1000 DRAQ5 (Biostatus limited) in Odyssey buffer with 0.1% Tween 20 (v/v)) and incubated for 1 hour at room temperature. The plates were washed 5 times with 100 μL per well wash buffer then 1 time with 100 μL per well of water. Plates were allowed to dry at room temperature then imaged on the Licor Odyssey machine which measures integrated intensity at 700 nm and 800 nm wavelengths. Both 700 and 800 channels were scanned.
First, the ratio for each well was determined by:
Each plate included fourteen control wells of DMSO only treatment (minimum inhibition) as well as fourteen control wells for maximum inhibition treated with 3 μM of a reference compound (Background wells). The average of the ratio values for each control type was calculated and used to determine the percent inhibition for each test well in the plate. Reference compound was serially diluted three-fold in DMSO for a total of nine test concentrations, beginning at 3 μM. Percent inhibition was determined and IC50 curves were generated using triplicate wells per concentration of compound. […]

Test [2] concerns Z-138 cells. Description: Z-138 Proliferation Assay (Cell Titer Glo). Format: cell-based. The note with it: 5 days incubation. From the text: [formula] Z-138 Proliferation Assay
Z-138 suspension cells were purchased from ATCC (American Type Culture Collection, Manassas, Va.). RPMI/Glutamax medium, penicillin-streptomycin, heat inactivated fetal bovine serum were purchased from Life Technologies, Grand Island, N.Y., USA. V-bottom polypropylene 384-well plates were purchased from Greiner Bio-One, Monroe, N.C., USA. Cell culture 384-well white opaque plates were purchased from Perkin Elmer, Waltham, Mass., USA. Cell-Titer Glo® was purchased from Promega Corporation, Madison, Wis., USA. SpectraMax M5 plate reader was purchased from Molecular Devices LLC, Sunnyvale, Calif., USA.
Z-138 suspension cells were maintained in growth medium (RPMI 1640 supplemented with 10% v/v heat inactivated fetal bovine serum and cultured at 37° C. under 5% CO2. Under assay conditions, cells were incubated in assay medium (RPMI 1640 supplemented with 10% v/v heat inactivated fetal bovine serum and 100 units/mL penicillin-streptomycin) at 37° C. under 5% CO2.
For the assessment of the effect of compounds on the proliferation of the Z-138 cell line, exponentially growing cells were plated in 384-well white opaque plates at a density of 10,000 cells/ml in a final volume of 50 μl of assay medium. A compound source plate was prepared by performing triplicate nine-point 3-fold serial dilutions in DMSO, beginning at 10 mM (final top concentration of compound in the assay was 20 μM and the DMSO was 0.2%). A 100 nL aliquot from the compound stock plate was added to its respective well in the cell plate. […] After addition of compounds, assay plates were incubated for 5 days at 37° C., 5% CO2, relative humidity >90%.
Cell viability was measured by quantitation of ATP present in the cell cultures, adding 35 μl of Cell Titer Glo® reagent to the cell plates. Luminescence was read in the SpectraMax M5 microplate reader. The concentration of compound inhibiting cell viability by 50% was determined using a 4-parametric fit of the normalized dose response curves.
For orientation: In ATP-based viability assays light output follows the ATP content of the culture.

Read-outs that look alike come from different tables or passages of the source. Where only a bound is given, the exact number is not on record here.

By EC50 is commonly meant the concentration at which the effect is half-maximal. In the case of `C[C@@H](Oc1cccc2cccnc12)C(=O)NC[C@H](O)CN1Cc2ccccc2C1` [compound 5, (R)—N—((S)-2-hydroxy-3-(isoindolin-2-yl)propyl)-2-(quinolin-8-yloxy)propanamide], the EC50 in test [1] (Homo sapiens) lay within 0.101 to 1 µM; in test [2] (Homo sapiens, 120 h), 1 to 10 µM.
`O=C(COc1ccccc1-c1cc[nH]n1)NCC(O)CN1Cc2ccccc2C1` (centres unmarked) [compound 7]: the EC50 in test [1] (Homo sapiens) is 0.101 to 1 µM; in test [2] (Homo sapiens, 120 h) it was above 20 µM.
On to `O=C(NCC(O)CN1Cc2ccccc2C1)c1cccc(-c2ccccn2)c1` (centres unmarked) [compound 13, N-(2-hydroxy-3-(isoindolin-2-yl)propyl)-3-(pyridin-2-yl)benzamide], for which the EC50 was 1 to 10 µM in test [1] (Homo sapiens) and above 20 µM in test [2] (Homo sapiens, 120 h).
For `CN(C)S(=O)(=O)c1ccccc1OCC(=O)NCC(O)CN1Cc2ccccc2C1` (centres unmarked) [compound 15, 2-(2-(N,N-dimethylsulfamoyl)phenoxy)-N-(2-hydroxy-3-(isoindolin-2-yl)propyl)acetamide] the same measures were 0.101 to 1 µM and 1 to 10 µM.
For `O=C(COc1cccc2cccnc12)NCC(O)CN1Cc2ccccc2C1` (centres unmarked) [compound 19, N-(2-hydroxy-3-(isoindolin-2-yl)propyl)-2-(quinolin-8-yloxy)acetamide] the same measures were 1 to 10 µM and above 20 µM.
`O=C(NC[C@H](O)CN1Cc2ccccc2C1)c1cccc(NC2CCOCC2)c1` [compound 28]: the EC50 in test [1] (Homo sapiens) was in the range of 0.101 to 1 µM; in test [2] (Homo sapiens, 120 h), 10 to 50 µM.
Consider `O=C(NC[C@H](O)CN1Cc2ccccc2C1)c1cc(NC2CCOCC2)ncn1` [compound 29], for which the EC50 fell in the range of 0.101 to 1 µM in test [1] (Homo sapiens) and 1 to 10 µM in test [2] (Homo sapiens, 120 h).
For `Cc1nc(NC2COC2)cc(C(=O)NC[C@H](O)CN2Cc3ccccc3C2)n1` [compound 35] the same measures were above 1 µM and above 20 µM.
As for `O=C(NC[C@H](O)CN1Cc2ccccc2C1)c1cc(NC2COC2)nc(C(F)(F)F)n1` [compound 36], the EC50 in test [1] (Homo sapiens) lay in the range of 0.101 to 1 µM; in test [2] (Homo sapiens, 120 h) it was 10 to 50 µM.
For `O=C(CCc1nc2ccccc2[nH]1)NCC(O)CN1Cc2ccccc2C1` (centres unmarked) [compound 37], in that order: 0.101 to 1 µM and above 20 µM.
For `O=C(NC[C@H](O)CN1Cc2ccccc2C1)c1cc(NC2COC2)nc(N2CCOCC2)n1` [compound 38] the same measures were below 0.1 µM and 1 to 10 µM.
For the molecule `CC(=O)N1CCC(Nc2cc(C(=O)NC[C@H](O)CN3Cc4ccccc4C3)ccn2)CC1` [compound 40], the concentration giving a half-maximal response (EC50) is below 0.1 µM in test [1] (Homo sapiens) and 0.101 to 1 µM in test [2] (Homo sapiens, 120 h).
For `O=C(NC[C@H](O)CN1CCc2ccccc21)c1cc(NC2COC2)ncn1` [compound 42] the same measures were above 1 µM and above 5 µM.
For `CC(=O)N1CCC(Nc2cc(C(=O)NC[C@H](O)CN3CCc4ccccc43)ncn2)CC1` [compound 43] the same measures were above 1 µM and above 5 µM.
For `CC(=O)N1CCC(Nc2cc(C(=O)NC[C@H](O)CN3CCc4ccccc43)ccn2)CC1` [compound 44] the same measures were above 1 µM and above 5 µM.
As to `O=C(NC[C@H](O)CN1CCCCc2ccccc21)c1cc(NC2COC2)ncn1` [compound 45], the concentration giving a half-maximal response (EC50) was above 1 µM in test [1] (Homo sapiens) and above 5 µM in test [2] (Homo sapiens, 120 h).
For `CC(=O)N1CC(Nc2cc(C(=O)NC[C@H](O)CN3CCCCc4ccccc43)ncn2)C1` [compound 46] the same measures were above 1 µM and above 5 µM.
For `CC(=O)N1CCC(Nc2cc(C(=O)NC[C@H](O)CN3CCCCc4ccccc43)ncn2)CC1` [compound 47], in that order: above 1 µM and above 5 µM.
As for `O=C(NC[C@H](O)CN1CCCc2ccccc2C1)c1cc(NC2COC2)ncn1` [compound 48], the EC50 in test [1] (Homo sapiens) was above 1 µM; in test [2] (Homo sapiens, 120 h) it was above 5 µM.
For `CC(=O)N1CC(Nc2cc(C(=O)NC[C@H](O)CN3CCCc4ccccc4C3)ncn2)C1` [compound 49], the half-maximal effective concentration (EC50) in test [1] (Homo sapiens) is above 1 µM; in test [2] (Homo sapiens, 120 h), above 5 µM.
For `CC(=O)N1CCC(Nc2cc(C(=O)NC[C@H](O)CN3CCCc4ccccc4C3)ncn2)CC1` [compound 50], in that order: above 1 µM and above 5 µM.
Consider “N-(2-hydroxy-3-(isoindolin-2-yl)propyl)-2-((4-methyl-3,4-dihydro-2H-benzo[b][1,4]oxazin-5-yl)oxy)acetamide [compound 10]”, for which the EC50 in test [1] was 0.101 to 1 µM; in test [2], above 20 µM.
